Bridge positions count the residues as written; N and C are the ends. Peptide text beside a SMILES is read from it.
Legend:
TNFα trimer = settings: TNFα 10 µM with excess peptide 100 µM, longer pre-incubation
TNFα = TNFα (Homo sapiens, UniProt P01375); settings: L929 assay; unable to fully rescue because of toxicity at higher concentrations
L929 cells = settings: at >100 µM compound

Sequence of TNFα (P01375 77-233 limits assumed): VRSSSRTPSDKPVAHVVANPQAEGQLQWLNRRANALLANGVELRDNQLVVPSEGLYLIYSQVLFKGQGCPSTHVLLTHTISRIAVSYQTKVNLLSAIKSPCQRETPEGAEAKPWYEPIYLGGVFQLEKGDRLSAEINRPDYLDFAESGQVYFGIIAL

SMILES	effect on TNFα trimers (MS) (TNFα trimer)	maximal rescue of cell viability (TNFα)	cell death (L929 cells)
Cc1c2c(C)c3c(C)c1CSC[C@H](NC(=O)[C@@H]1CCCN1C(=O)[C@@H]1CCCN1C(=O)[C@@H](NC(=O)[C@H](C)N)CSC3)C(=O)N[C@@H](CC(C)C)C(=O)N[C@@H](Cc1c[nH]c3ccccc13)C(=O)N[C@@H](CCC(N)=O)C(=O)N[C@@H](C(C)C)C(=O)N[C@@H](CC(C)C)C(=O)N[C@H](C(=O)NCC(=O)NCC(=O)N[C@@H](CO)C(=O)NCC(=O)N[C@@H](CO)C(=O)NCC(=O)N[C@@H](CO)C(=O)NCC(N)=O)CSC2 [M21h]	converted quantitatively into dimers and monomers	–	–
CC(C)C[C@H](NC(=O)[C@@H]1CSSC[C@@H]2NC(=O)[C@H](CC(C)C)NC(=O)[C@H](CCC(=O)O)NC(=O)[C@@H](NC(=O)[C@H](CCC(=O)O)NC(=O)[C@H](CC(=O)O)NC(=O)[C@@H](N)CC(N)=O)CSSC[C@H](NC(=O)[C@H](C)NC(=O)[C@H](C(C)C)NC(=O)[C@H](CC(N)=O)NC(=O)[C@H](C(C)C)NC2=O)C(=O)N[C@@H]([C@@H](C)O)C(=O)NCC(=O)N1)C(=O)O [SPD304] (H-NDECELCVNVACTGCL-OH; disulfide 4-12, 7-15)	–	≤ 73%	100%
